From the supplement of paper PMC9103864

Experiments:
[1] = test system: BMSC (primary human bone marrow mesenchymal stromal cells); test: absolute EC50 for viability; higher = less sensitive
[2] = test system: BMSC (primary human bone marrow mesenchymal stromal cells); test: drug sensitivity score (DSS); higher = more sensitive

| SMILES | absolute EC50 for viability [1] [nM] | drug sensitivity score [2] |
| --- | --- | --- |
| CS(=O)(=O)CCNCc1ccc(-c2ccc3ncnc(Nc4ccc(OCc5cccc(F)c5)c(Cl)c4)c3c2)o1 [Lapatinib] | > 1000 | 0.1 |
| CC(C)[C@H](C(=O)Nc1ccc(C(=O)NO)cc1)c1ccccc1 [AR-42] | 1940 | 7.5 |
| Cn1cnc2c(F)c(Nc3ccc(Br)cc3Cl)c(C(=O)NOCCO)cc21 [Selumetinib] | > 10000 | 4.9 |
| COCC1(CO)C(=O)C2CCN1CC2 (stereo not given) [APR-246] | > 10000 | 0 |
| O=C(O)c1ccc2c(c1)nc(Nc1cccc(Cl)c1)c1ccncc12 [Silmitasertib] | > 10000 | 2.3 |
| CC[C@]12C=CCN3CC[C@@]4(c5cc([C@@]6(C(=O)OC)C[C@@H]7C[C@@H](C(C)(F)F)CN(Cc8c6[nH]c6ccccc86)C7)c(OC)cc5N(C)[C@H]4[C@@](O)(C(=O)OC)[C@@H]1OC(C)=O)[C@@H]32 [Vinflunine] | > 1000 | 2.8 |
| CC(C)(O)CC(=O)NCCn1ccc2ncnc(Nc3ccc(Oc4cccc(C(F)(F)F)c4)c(Cl)c3)c21 [TAK-285] | > 2500 | 0.4 |
| Cc1cccc(CC(=O)N2CCc3c2ccc(-c2cn(C)c4ncnc(N)c24)c3F)n1 | > 2500 | 0 |
| Nc1ncn([C@H]2C[C@H](O)[C@@H](CO)O2)c(=O)n1 [Decitabine] | > 10000 | 0 |
| Cc1ccc(C(=O)Nc2ccc(Oc3cc4cnn(C)c4cc3-c3cn[nH]c3)c(F)c2)c(=O)n1-c1ccc(F)cc1 [Merestinib] | > 1000 | 1.4 |
| COc1cc(Nc2ncc(F)c(Nc3ccc4c(n3)NC(=O)C(C)(C)O4)n2)cc(OC)c1OC [Tamatinib] | > 10000 | 4.2 |
| CC(C)(C#N)c1cc(Cn2cncn2)cc(C(C)(C)C#N)c1 [Anastrozole] | > 10000 | 0 |
| CNC(=O)c1ccccc1Nc1cc(Nc2ccc(N3CCOCC3)cc2OC)ncc1C(F)(F)F [VS-4718] | > 10000 | 5.6 |
| CC(C)[C@H]1C(=O)N[C@@H](CCCNC(=N)N)C(=O)NCC(=O)N[C@@H](CC(=O)O)C(=O)N[C@H](Cc2ccccc2)C(=O)N1C [Cilengitide] | > 10000 | 1.4 |
| NC(=O)N1CCC(CC(=O)N2CCC([C@H]3c4ncc(Br)cc4CCc4cc(Cl)cc(Br)c43)CC2)CC1 [Lonafarnib] | > 100000 | 4.4 |
| CC(C)(C)c1cc(NC(=O)Nc2ccc(-c3cn4c(n3)sc3cc(OCCN5CCOCC5)ccc34)cc2)no1 [Quizartinib] | > 1000 | 2.2 |
| CC(C)(C)c1cc(NC(=O)Nc2ccc(Oc3ccnc4[nH]c(=O)cnc34)cc2F)n(-c2ccccc2)n1 | > 25000 | 0 |
| CCN(CC)CCN(Cc1ccc(-c2ccc(C(F)(F)F)cc2)cc1)C(=O)Cn1c(SCc2ccc(F)cc2)nc(=O)c2c1CCC2 [Darapladib] | > 1000 | 0 |
| CC(C)N(CCCNC(=O)Nc1ccc(C(C)(C)C)cc1)C[C@H]1O[C@@H](n2cc(Br)c3c(N)ncnc32)[C@H](O)[C@@H]1O [SGC0946] | > 10000 | 2.1 |
| O=C(CCCCCCC(=O)Nc1ccc([C@H]2O[C@@H](CSc3nc(-c4ccccc4)c(-c4ccccc4)o3)C[C@@H](c3ccc(CO)cc3)O2)cc1)NO [Tubacin] | > 10000 | 0 |
| CC1(C)CC[C@]2(NC(=O)C(C)(F)F)CC[C@]3(C)[C@H](C(=O)C=C4[C@@]5(C)C=C(C#N)C(=O)C(C)(C)[C@@H]5CC[C@]43C)[C@@H]2C1 [Omaveloxolone] | 3770 | 4.7 |
| CCCS(=O)(=O)Nc1ccc(F)c(C(=O)c2c[nH]c3ncc(-c4ccc(Cl)cc4)cc23)c1F [Vemurafenib] | > 10000 | 0 |
| Cc1ccc(-n2nc(C(C)(C)C)cc2NC(=O)Nc2ccc(OCCN3CCOCC3)c3ccccc23)cc1 [Doramapimod] | > 10000 | 1 |
| C=CCN(/C=C1/C(=O)O[C@H](COC)[C@@]2(C)C1=C(O)C(=O)C1=C2[C@H](OC(C)=O)C[C@]2(C)C(=O)CC[C@@H]12)CC=C [Sonolisib] | > 10000 | 0 |
| CCCCCOC(=O)Nc1nc(=O)n([C@@H]2O[C@H](C)[C@@H](O)[C@H]2O)cc1F [Capecitabine] | > 10000 | 0 |
| C[C@H]1Oc2cc(cnc2N)-c2c(nn(C)c2C#N)CN(C)C(=O)c2ccc(F)cc21 | > 1000 | 0.2 |
| Cn1cc(-c2cnn3c(N)c(Br)c([C@@H]4CCCNC4)nc23)cn1 [MK-8776] | > 2500 | 1 |
| Cc1c(Cn2c(C)nc3c(C(=O)O)cc(N4CCOCC4)cc32)cccc1C(F)(F)F | > 10000 | 0 |

| SMILES | absolute EC50 for viability [1] [nM] | drug sensitivity score [2] |
| --- | --- | --- |
| CC[C@H](Nc1ncnc2[nH]cnc12)c1nc2cccc(F)c2c(=O)n1-c1ccccc1 [Idelalisib] | > 10000 | 2.7 |
| CN(Cc1cnc2nc(N)nc(N)c2n1)c1ccc(C(=O)N[C@@H](CCC(=O)O)C(=O)O)cc1 [Methotrexate] | > 5000 | 4.7 |
| CCOc1ccn(-c2ccc(F)cc2)c(=O)c1C(=O)Nc1ccc(Oc2ccnc(N)c2Cl)c(F)c1 | > 2500 | 0 |
| CS(=O)(=O)N1CCN(Cc2cc3nc(-c4cccc5[nH]ncc45)nc(N4CCOCC4)c3s2)CC1 [Pictilisib] | 1280 | 11 |
| COc1cc([C@@H]2c3cc4c(cc3[C@@H](O[C@@H]3O[C@@H]5CO[C@@H](C)O[C@H]5[C@H](O)[C@H]3O)[C@H]3COC(=O)[C@H]23)OCO4)cc(OC)c1O [Etoposide] | > 10000 | 0 |
| CC(=O)c1cnc2ccc(-c3cc(Cl)c(O)c(Cl)c3)nc2c1N[C@H]1CC[C@H](CN(C)C)CC1 [OTS167] | > 1000 | 2.9 |
| C=CC(=O)Nc1cc2c(Nc3ccc(F)c(Cl)c3)ncnc2cc1OCCCN1CCOCC1 [Canertinib] | > 10000 | 3.7 |
| CC/C(=C(\c1ccccc1)c1ccc(OCCN(C)C)cc1)c1ccccc1 [Tamoxifen] | > 10000 | 0 |
| CC(C)Cn1cnc2c(N)nc3ccccc3c21 [Imiquimod] | > 2500 | 0 |
| CCC/C=C/C=C/C(=O)O[C@H]1/C(=C/C(=O)OC)C[C@H]2C[C@H]([C@@H](C)O)OC(=O)C[C@H](O)C[C@@H]3C[C@H](OC(C)=O)C(C)(C)[C@](O)(C[C@@H]4C/C(=C/C(=O)OC)C[C@H](/C=C/C(C)(C)[C@]1(O)O2)O4)O3 [Bryostatin 1] | > 100 | 0 |
| CCN(CC)CCCC(C)Nc1c2ccc(Cl)cc2nc2ccc(OC)cc12 (stereo not given) [Mepacrine] | 1580 | 17.7 |
| CC[C@@H]1[C@H](F)C(=O)N[C@@H]1COc1nccc2cc(C(N)=O)c(OC)cc12 | > 10000 | 0.3 |
| O=C1Cc2cc(C(=O)NC3C[C@H]4CC[C@@H](C3)N4S(=O)(=O)CC3CCN(CCCC(F)(F)F)CC3)c(Cl)cc2N1 (stereo not given in full) | > 10000 | 0 |
| CO[C@H]1C[C@@H]2CC[C@@H](C)[C@@](O)(O2)C(=O)C(=O)N2CCCC[C@H]2C(=O)O[C@H]([C@H](C)C[C@@H]2CC[C@@H](OC(=O)C(C)(CO)CO)[C@H](OC)C2)CC(=O)[C@H](C)/C=C(\C)[C@@H](O)[C@@H](OC)C(=O)[C@H](C)C[C@H](C)/C=C/C=C/C=C/1C [Temsirolimus] | > 100 | 7.4 |
| O=C(NOC[C@H](O)CO)c1ccc(F)c(F)c1Nc1ccc(I)cc1F [Mirdametinib] | > 1000 | 2.1 |
| Cc1sc2c(c1C)C(c1ccc(Cl)cc1)=N[C@@H](CC(=O)NCCCCNC(=O)COc1cccc3c1C(=O)N(C1CCC(=O)NC1=O)C3=O)c1nnc(C)n1-2 (stereo not given in full) [dBET1] | 2050 | 8.2 |
| CCNCCS(=O)(=O)NC[C@@]1(c2ccccc2)SC(NC(=O)C(C)(C)C)=NN1C(=O)C(C)(C)C [Litronesib] | > 1000 | 0 |
| Oc1nc(-c2ccc(C(F)(F)F)cc2)nc2c1CSCC2 [XAV-939] | > 10000 | 1.5 |
| Cn1cc(C2=Nc3cc(NC(=O)C(N)C4CCCCC4)cc4c3C2=CNNC4=O)cn1 (stereo not given) | 1430 | 9.2 |
| CCc1nc(C(N)=O)c(Nc2ccc(N3CCC(N4CCN(C)CC4)CC3)c(OC)c2)nc1NC1CCOCC1 [Gilteritinib] | > 1000 | 0.8 |
| C=CC(=O)N1CCC[C@@H](n2nc(-c3ccc(Oc4ccccc4)cc3)c3c(N)ncnc32)C1 [Ibrutinib] | > 1000 | 0 |
| O=C(/C=C\n1cnc(-c2cc(C(F)(F)F)cc(C(F)(F)F)c2)n1)NNc1ccccn1 [Verdinexor] | > 1000 | 1.6 |
| CN1CCN(c2cc(C(=O)Nc3ccc4c(c3)-c3c(c(C(N)=O)nn3-c3ccc(F)cc3)CC4)c(Cl)cn2)CC1 [PHA 408] | > 10000 | 1.3 |
| Nc1nccc(-c2c(-c3ccc(F)cc3)ncn2C2CCCCC2)n1 | > 10000 | 0.3 |
| NC(=O)Nc1cc(-c2cccc(F)c2)sc1C(=O)N[C@H]1CCCNC1 [AZD7762] | > 1000 | 7.2 |
| CNCc1ccc(-c2[nH]c3cc(F)cc4c3c2CCNC4=O)cc1 [Rucaparib] | > 10000 | 2.3 |
| COCCNCc1ccc(-c2cc3nccc(Oc4ccc(NC(=O)C5(C(=O)Nc6ccc(F)cc6)CC5)cc4F)c3s2)nc1 [Sitravatinib] | > 2500 | 7.7 |
